Laboratory results from patent US20250042876A1, “HERBICIDAL PYRAZOLE PYRIMIDINE COMPOUNDS” (SYNGENTA CROP PROTECTION AG, priority 2021, published 2025).

Assays:
Format in all cases: in vivo
Details in all cases: 250 g/ha, evaluated after 13 days
[1] = system: Amaranthus palmeri (AMAPA); test: Post-emergence herbicidal test, glasshouse
Description: (§1) Seeds of a variety of test species are sown in standard soil in pots Amaranthus palmeri (AMAPA), Amaranthus retoflexus (AMARE), Setaria faberi (SETFA), Echinochloa crus-galli (ECHCG), Ipomoea hederacea (IPOHE)). After cultivation for one day (pre-emergence) or after 8 days cultivation (post-emergence) under controlled conditions in a glasshouse (at 24/16° C., day/night; 14 hours light; 65% humidity), the plants are sprayed with an aqueous spray solution derived from the formulation of the technical active ingredient in acetone/water (50:50) solution containing 0.5% Tween 20 (polyoxyethelyene sorbitan monolaurate, CAS RN 9005-64-5). Compounds are applied at 250 g/ha unless otherwise stated. The test plants are then grown in a glasshouse under controlled conditions in a glasshouse (at 24/16° C., day/night; 14 hours light; 65% humidity) and watered twice daily. After 13 days for pre and post-emergence, the test is evaluated for the percentage damage caused to the plant. The biological activities are shown in the following table on a five-point scale (5=81-100%; 4=61-80%; 3=41-60%; 2=21-40%; 1=0-20%).

[2] = system: Ipomoea hederacea (IPOHE); test: Post-emergence herbicidal test, glasshouse
Description: as §1

[3] = system: Echinochloa crus-galli (ECHCG); test: Post-emergence herbicidal test, glasshouse
Description: as §1

[4] = system: Setaria faberi (SETFA); test: Post-emergence herbicidal test, glasshouse
Description: as §1

[5] = system: Amaranthus retoflexus (AMARE); test: Post-emergence herbicidal test, glasshouse
Description: as §1

[6] = system: Amaranthus palmeri (AMAPA); test: Pre-emergence herbicidal test, glasshouse
Description: as §1

[7] = system: Ipomoea hederacea (IPOHE); test: Pre-emergence herbicidal test, glasshouse
Description: as §1

[8] = system: Echinochloa crus-galli (ECHCG); test: Pre-emergence herbicidal test, glasshouse
Description: as §1

[9] = system: Setaria faberi (SETFA); test: Pre-emergence herbicidal test, glasshouse
Description: as §1

[10] = system: Amaranthus retoflexus (AMARE); test: Pre-emergence herbicidal test, glasshouse
Description: as §1

SMILES | AMAPA percentage damage caused to the plant (five-point scale) [1] | IPOHE percentage damage caused to the plant (five-point scale) [2] | ECHCG percentage damage caused to the plant (five-point scale) [3] | SETFA percentage damage caused to the plant (five-point scale) [4] | AMARE percentage damage caused to the plant (five-point scale) [5] | AMAPA percentage damage caused to the plant (five-point scale) [6] | IPOHE percentage damage caused to the plant (five-point scale) [7] | ECHCG percentage damage caused to the plant (five-point scale) [8] | SETFA percentage damage caused to the plant (five-point scale) [9] | AMARE percentage damage caused to the plant (five-point scale) [10]
FC(F)(F)c1ccc(-n2nc(C(F)(F)F)cc2Cc2ncc(Cl)cn2)cc1 [Compound 1.001, 5-chloro-2-[[5-(trifluoromethyl)-2-[4-(trifluoromethyl)phenyl]pyrazol-3-yl]methyl]pyrimidine] | 4 (4=61-80%) | 4 (4=61-80%) | 4 (4=61-80%) | 4 (4=61-80%) | 4 (4=61-80%) | 5 (5=81-100%) | 5 (5=81-100%) | 5 (5=81-100%) | 5 (5=81-100%) | 5 (5=81-100%)
FC(F)(F)c1ccc(-n2nc(C(F)(F)F)cc2Cc2ncc(Br)cn2)cc1 [Compound 1.002, 5-bromo-2-[[5-(trifluoromethyl)-2-[4-(trifluoromethyl)phenyl]pyrazol-3-yl]methyl]pyrimidine] | 4 (4=61-80%) | 4 (4=61-80%) | 5 (5=81-100%) | 4 (4=61-80%) | 4 (4=61-80%) | 5 (5=81-100%) | 5 (5=81-100%) | 5 (5=81-100%) | 4 (4=61-80%) | 5 (5=81-100%)
Fc1cnc(Cc2cc(C(F)(F)F)nn2-c2ccc(C(F)(F)F)cc2)nc1 [Compound 1.003] | 5 (5=81-100%) | 5 (5=81-100%) | 5 (5=81-100%) | 4 (4=61-80%) | 5 (5=81-100%) | 5 (5=81-100%) | 5 (5=81-100%) | 5 (5=81-100%) | 5 (5=81-100%) | 5 (5=81-100%)
COc1cnc(Cc2cc(C(F)(F)F)nn2-c2ccc(C(F)(F)F)cc2)nc1 [Compound 1.004] | 5 (5=81-100%) | 4 (4=61-80%) | 5 (5=81-100%) | 5 (5=81-100%) | 5 (5=81-100%) | 5 (5=81-100%) | 5 (5=81-100%) | 5 (5=81-100%) | 5 (5=81-100%) | 5 (5=81-100%)
N#Cc1cc(Cc2ncc(Cl)cn2)n(-c2ccc(F)c(F)c2)n1 [Compound 1.025, 5-[(5-chloropyrimidin-2-yl)methyl]-1-(3,4-difluorophenyl)pyrazole-3-carbonitrile] | – | 4 (4=61-80%) | 5 (5=81-100%) | 5 (5=81-100%) | 5 (5=81-100%) | 5 (5=81-100%) | 5 (5=81-100%) | 5 (5=81-100%) | – | 5 (5=81-100%)
Fc1cc(-n2nc(C(F)(F)F)cc2Cc2ncc(Cl)cn2)cnc1Cl [Compound 1.026, 5-chloro-2-[[2-(6-chloro-5-fluoro-3-pyridyl)-5-(trifluoromethyl)pyrazol-3-yl]methyl]pyrimidine] | – | 2 (2=21-40%) | 5 (5=81-100%) | 5 (5=81-100%) | 5 (5=81-100%) | 5 (5=81-100%) | 5 (5=81-100%) | 5 (5=81-100%) | – | 5 (5=81-100%)
Fc1ccc(-n2nc(C(F)F)cc2Cc2ncc(Cl)cn2)cc1 [Compound 1.033] | 5 (5=81-100%) | 4 (4=61-80%) | 4 (4=61-80%) | – | 5 (5=81-100%) | 5 (5=81-100%) | 5 (5=81-100%) | 5 (5=81-100%) | – | 5 (5=81-100%)
FC(F)(F)c1ccc(-n2nc(C(F)(F)F)c(Cl)c2Cc2ncc(Br)cn2)cc1 [Compound 1.034, 5-bromo-2-[[4-chloro-5-(trifluoromethyl)-2-[4-(trifluoromethyl)phenyl]pyrazol-3-yl]methyl]pyrimidine] | 5 (5=81-100%) | 4 (4=61-80%) | 4 (4=61-80%) | – | 4 (4=61-80%) | 5 (5=81-100%) | 5 (5=81-100%) | 5 (5=81-100%) | – | 5 (5=81-100%)
FC(F)(F)c1ccc(-n2nc(C(F)(F)Cl)cc2Cc2ncc(Cl)cn2)cc1 [Compound 1.036] | – | 3 (3=41-60%) | 5 (5=81-100%) | 5 (5=81-100%) | 5 (5=81-100%) | 5 (5=81-100%) | 5 (5=81-100%) | 5 (5=81-100%) | 5 (5=81-100%) | 5 (5=81-100%)
Cc1ccc(-n2nc(C(F)(F)F)cc2Cc2ncc(Cl)cn2)cc1 [Compound 1.037, 5-chloro-2-[[2-(p-tolyl)-5-(trifluoromethyl)pyrazol-3-yl]methyl]pyrimidine] | – | 3 (3=41-60%) | 4 (4=61-80%) | 5 (5=81-100%) | 5 (5=81-100%) | 5 (5=81-100%) | 1 (1=0-20%) | 5 (5=81-100%) | 5 (5=81-100%) | 5 (5=81-100%)
